These are literature values, as cited in publication PMC10026531 (Clinical Pharmacology in Drug Development, 2022).

The conditions of this data set: in vivo, po.

`O=c1ccc2ccc(OCCCCN3CCN(c4cccc(Cl)c4Cl)CC3)cc2[nH]1` [dehydro‐aripiprazole]: the “share of the parent drug exposure in plasma” value is given as 40%.
